What is called EC50 is the concentration giving half of the maximal effect. As a reminder, the AC50 is the concentration giving half of the maximal activity seen. One may read the GI50 as the concentration at which growth is held to half of that of the control.

SMILES strings stand for the structures. Active and inactive are the calls of the source.

Assay [1] is described as follows: cells. It is filed as functional, cell-based.
A short description of assay [2]: cells. It is filed as functional, cell-based. This is another data set of the same source.
For another assay, the target named is Cytochrome P450 2C19 (Homo sapiens, UniProt P33261). The experiment in a line: Cytochrome panel assay with activity outcomes. Panel member name: p450-cyp2c19 Compounds with AC50 equal or less than 10 uM are considered active. The format is functional. The conditions noted are these: read-out: AC50.
The target in the next assay is Cytochrome P450 2C9 (Homo sapiens, UniProt P11712).
In the next assay the target is Cytochrome P450 2D6 (Homo sapiens, UniProt P10635).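 Further: CYP2D6 member of a cytochrome P450 panel assay.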
Assay [3] can be described thus: P. falciparum Dd2 growth inhibitors, dose response, SYBR Green, cherry-picked samples (AID 1159567). The format is functional, cell-based.
The nature of assay [4]: cells. It is filed as functional.
In another assay the target is Cytochrome P450 3A4 (Homo sapiens, UniProt P08684).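 Further: CYP3A4 tested as one member of a cytochrome P450 panel screen.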
The target in assay [5] is T1, Polyadenylate-binding protein 1 (Homo sapiens, UniProt P11940). The experiment in a line: PABP1 MLLE–PAM2 interaction inhibitors, dose response, miRNA deadenylation inhibitor project, biochemical, fluorescence polarization, Cy5-PAM2 peptide, secondary (AID 602260). It is filed as functional. Particulars: read-out: IC50_Mean. (In fluorescence polarisation assays a small probe gives low polarisation when free and higher when bound to something large.)

For assay [6], the target named is T1, Polyadenylate-binding protein 1. Briefly: PABP1 MLLE–PAM2 binding inhibitor potency, dose response, biochemical, fluorescence polarization, FITC-PAM2 peptide (AID 602259). The format is functional. Particulars: read-out: IC50_Mean.
The nature of assay [7]: inhibitors of clade B AD8 Env fusion, dose response, cell-based, cherry-pick (AID 652062).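 Further: luciferase signal from cell-cell fusion driven by HIV-1 clade B AD8 Env; potency is for inhibitors of fusion seen as a drop in luminescence.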 The format is functional.
Assay [8] in a line: Shn3 3'UTR reporter inhibitors, dose response, cell-based, Clone20 osteoblasts, firefly luciferase, cherry-picked (AID 624132).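 Further: firefly luciferase luminescence from reporter carrying the Shn3 3'UTR in osteoblasts.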 It is filed as functional.
Another assay has as its target Large T antigen (Simian virus 40, UniProt P03070). The format is functional, Betapolyomavirus macacae.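 Further: Confirmatory-stage PubChem screen for compounds that inhibit SV40 T antigen.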
The nature of assay [9]: HepG2 cell cytotoxicity, dose response, cytotoxicity control for Shn3 inhibitor project, CellTiter-Glo, cherry-picked (AID 624134). It is filed as functional, cell-based. On the technique in general: Cellular ATP, detected with luciferase, serves as a proxy for viable cell number.
The subject of another assay is P388/ADR. Briefly: cells. It is filed as functional. Particulars: Mus musculus.
A further assay relates to SN12K1. The experiment in a line: cells. The format is functional. Particulars: Homo sapiens.
A further assay concerns P388. The experiment in a line: cells. The format is functional. Particulars: Mus musculus.
In another assay the test system is INS1. Briefly: beta cell apoptosis inhibitors, cytokine rescue, dose response, luminescence, retest (AID 449756).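 Further: cell death triggered by IL-1 beta plus TNF-alpha plus IFN-gamma mixture; protective hits raise ATP signal compared with cytokine alone wells.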 It is filed as functional, cell-based. The conditions noted are these: Rattus norvegicus.
A short description of assay [10]: growth suppression of PTEN-null colon cells, dose response, cell-based, HCT116 PTEN knockout (AID 1047).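 Further: HCT116 colon tumor cells with PTEN knocked out; cells exposed to compound for 60 hours before readout; potency for loss of cell viability measured by luminescence.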 It is filed as functional.
A short description of assay [11]: growth suppression of beta-catenin-knockout colon cells, dose response, cell-based, HCT116, human colon tumor (AID 1045).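 Further: HCT116 colon tumor cells with beta catenin knocked out; cells exposed to compound for 60 hours.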 It is filed as functional.
The nature of assay [12]: off-target signal loss in HeLa-CEM21 co-culture – HeLa F-luc CTL cells, cherry-picked, counter-screen for HIV-1 Env fusion inhibitor project, dose response (AID 652040).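 Further: potency for signal decrease marking cytotoxic or nonspecific inhibition.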 It is filed as functional, cell-based. (Counterscreens check selectivity or assay interference.)

Sequence of Cytochrome P450 2C9 (P11712 whole entry): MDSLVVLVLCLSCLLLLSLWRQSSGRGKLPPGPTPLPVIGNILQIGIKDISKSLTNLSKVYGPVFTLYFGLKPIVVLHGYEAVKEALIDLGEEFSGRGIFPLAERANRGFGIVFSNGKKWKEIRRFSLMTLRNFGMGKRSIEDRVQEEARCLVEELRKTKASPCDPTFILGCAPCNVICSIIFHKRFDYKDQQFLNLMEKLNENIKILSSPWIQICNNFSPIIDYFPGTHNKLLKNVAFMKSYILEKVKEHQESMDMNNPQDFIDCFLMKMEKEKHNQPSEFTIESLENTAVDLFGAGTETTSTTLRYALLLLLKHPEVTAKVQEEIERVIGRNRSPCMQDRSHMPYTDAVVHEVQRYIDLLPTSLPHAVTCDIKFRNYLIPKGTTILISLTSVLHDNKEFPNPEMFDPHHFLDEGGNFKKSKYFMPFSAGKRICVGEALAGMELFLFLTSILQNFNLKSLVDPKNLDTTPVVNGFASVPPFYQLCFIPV
Sequence of Large T antigen (P03070 whole entry): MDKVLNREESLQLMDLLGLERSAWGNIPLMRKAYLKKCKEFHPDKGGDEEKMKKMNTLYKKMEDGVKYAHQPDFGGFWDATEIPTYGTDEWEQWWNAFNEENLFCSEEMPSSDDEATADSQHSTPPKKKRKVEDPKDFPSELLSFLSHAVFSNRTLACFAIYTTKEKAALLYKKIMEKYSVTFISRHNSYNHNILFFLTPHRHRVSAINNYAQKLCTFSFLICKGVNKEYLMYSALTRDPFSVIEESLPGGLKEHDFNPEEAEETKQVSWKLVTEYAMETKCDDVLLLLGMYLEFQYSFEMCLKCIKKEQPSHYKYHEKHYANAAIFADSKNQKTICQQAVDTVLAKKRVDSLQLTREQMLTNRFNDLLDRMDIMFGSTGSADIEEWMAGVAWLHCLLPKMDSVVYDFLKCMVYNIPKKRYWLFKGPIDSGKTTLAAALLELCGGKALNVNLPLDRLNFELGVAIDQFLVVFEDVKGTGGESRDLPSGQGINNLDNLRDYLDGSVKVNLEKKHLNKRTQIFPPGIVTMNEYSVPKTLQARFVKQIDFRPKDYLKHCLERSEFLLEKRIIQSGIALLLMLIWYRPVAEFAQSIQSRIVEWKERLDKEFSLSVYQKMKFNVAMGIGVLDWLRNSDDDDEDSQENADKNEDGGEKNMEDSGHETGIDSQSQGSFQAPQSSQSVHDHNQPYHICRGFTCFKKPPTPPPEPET
Sequence of Cytochrome P450 2C19 (P33261 whole entry): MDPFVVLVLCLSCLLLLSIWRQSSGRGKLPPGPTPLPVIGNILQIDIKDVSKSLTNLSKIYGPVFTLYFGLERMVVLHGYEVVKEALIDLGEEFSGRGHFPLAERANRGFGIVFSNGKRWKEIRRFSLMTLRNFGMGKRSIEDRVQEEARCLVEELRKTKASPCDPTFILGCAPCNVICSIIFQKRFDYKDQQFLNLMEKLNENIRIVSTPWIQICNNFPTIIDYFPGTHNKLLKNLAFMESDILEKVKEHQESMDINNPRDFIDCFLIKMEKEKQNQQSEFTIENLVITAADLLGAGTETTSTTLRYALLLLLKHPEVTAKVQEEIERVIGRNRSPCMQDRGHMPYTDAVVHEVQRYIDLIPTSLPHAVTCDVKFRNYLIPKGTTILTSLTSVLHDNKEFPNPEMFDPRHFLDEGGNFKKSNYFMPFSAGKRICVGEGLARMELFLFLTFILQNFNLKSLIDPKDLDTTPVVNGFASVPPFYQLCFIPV
T1 sequence (P11940 whole entry): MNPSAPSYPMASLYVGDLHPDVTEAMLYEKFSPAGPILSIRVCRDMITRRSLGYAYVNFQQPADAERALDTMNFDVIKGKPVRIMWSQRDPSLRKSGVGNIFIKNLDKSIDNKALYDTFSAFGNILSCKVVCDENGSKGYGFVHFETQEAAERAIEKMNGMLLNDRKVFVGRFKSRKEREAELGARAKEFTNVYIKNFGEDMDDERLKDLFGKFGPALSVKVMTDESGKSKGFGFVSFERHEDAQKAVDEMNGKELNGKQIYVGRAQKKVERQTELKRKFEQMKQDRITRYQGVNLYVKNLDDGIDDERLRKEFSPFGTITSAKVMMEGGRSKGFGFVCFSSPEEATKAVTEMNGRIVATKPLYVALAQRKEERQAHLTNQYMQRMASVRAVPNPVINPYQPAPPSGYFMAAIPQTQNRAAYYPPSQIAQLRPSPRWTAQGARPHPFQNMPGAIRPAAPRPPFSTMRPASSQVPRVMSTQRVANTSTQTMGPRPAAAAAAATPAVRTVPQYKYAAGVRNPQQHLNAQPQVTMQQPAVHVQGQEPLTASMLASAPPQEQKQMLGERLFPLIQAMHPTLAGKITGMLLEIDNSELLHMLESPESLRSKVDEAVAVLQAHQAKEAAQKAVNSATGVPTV
Sequence of Cytochrome P450 2D6 (P10635 whole entry): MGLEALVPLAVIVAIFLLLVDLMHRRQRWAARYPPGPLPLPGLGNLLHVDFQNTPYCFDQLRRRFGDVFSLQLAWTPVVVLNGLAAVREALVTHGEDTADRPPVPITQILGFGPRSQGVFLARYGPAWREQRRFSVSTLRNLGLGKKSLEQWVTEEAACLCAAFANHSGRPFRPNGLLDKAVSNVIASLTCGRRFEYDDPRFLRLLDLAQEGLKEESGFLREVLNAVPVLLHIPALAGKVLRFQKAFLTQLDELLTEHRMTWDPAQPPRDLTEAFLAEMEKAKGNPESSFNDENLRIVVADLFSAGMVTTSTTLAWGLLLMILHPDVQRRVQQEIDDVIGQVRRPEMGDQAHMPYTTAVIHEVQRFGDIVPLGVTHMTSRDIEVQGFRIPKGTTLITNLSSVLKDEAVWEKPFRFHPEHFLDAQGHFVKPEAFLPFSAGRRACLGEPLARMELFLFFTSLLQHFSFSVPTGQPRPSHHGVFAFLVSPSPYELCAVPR
Sequence of Cytochrome P450 3A4 (P08684 whole entry): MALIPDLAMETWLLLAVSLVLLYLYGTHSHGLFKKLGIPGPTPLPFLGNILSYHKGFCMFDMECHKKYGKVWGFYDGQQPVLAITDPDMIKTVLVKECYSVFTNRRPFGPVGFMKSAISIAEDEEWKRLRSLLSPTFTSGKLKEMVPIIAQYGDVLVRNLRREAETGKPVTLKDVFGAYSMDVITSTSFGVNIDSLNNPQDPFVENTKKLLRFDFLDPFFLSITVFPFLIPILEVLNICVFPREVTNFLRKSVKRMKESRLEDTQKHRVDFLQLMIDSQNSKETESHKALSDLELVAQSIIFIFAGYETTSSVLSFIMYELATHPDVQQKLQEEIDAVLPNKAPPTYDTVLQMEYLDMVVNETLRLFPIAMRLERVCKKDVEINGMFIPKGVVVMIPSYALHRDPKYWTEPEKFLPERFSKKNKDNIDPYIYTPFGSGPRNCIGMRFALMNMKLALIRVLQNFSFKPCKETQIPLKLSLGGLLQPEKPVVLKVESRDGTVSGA

In the case of `COc1ccc(C2NN=C(c3ccc(C)cc3)S2)cc1` (configuration not stated), the results for the EC50 in “cells [1]” and in “cells [2]” were > 350 µM (not active) and 24.6 µM (active), respectively.

As to `NS(=O)(=O)c1ccc(/N=N\c2cnc(O)c(O)c2)cc1`, the AC50 is 6.31 µM (inconclusive) on Cytochrome P450 2C19, 6.31 µM (inconclusive) on Cytochrome P450 2C9 and 5.01 µM (inconclusive) at Cytochrome P450 2D6. Regarding `COc1ccc(-c2ccc([C@@H]3[C@H]4CN(C(=O)NC(C)C)CC(=O)N4[C@H]3CO)cc2)cc1`, the AC50 in assay [3] was 10 µM (active). Still for that read-out and setting: the value for `C[C@@H]1CN([C@H](C)CO)S(=O)(=O)c2ccc(C#C[C@@H](C)O)cc2O[C@H]1CN(C)C(=O)Nc1ccccc1` was 13 µM (active); that for `COc1ccccc1-c1ccccc1[C@H]1[C@H](C#N)N(C(=O)C2CCC2)[C@H]1CO` was 12 µM (active).

On to `CCCC1(C)Nc2ccccc2-c2nc3ccccc3n21` (configuration not stated), for which, at Cytochrome P450 2D6, the AC50 was 22.4 µM (inconclusive). In the case of `CC(C)NC[C@@H](O)COc1ccccc1-n1cccc1`, the AC50 at Cytochrome P450 2D6 is 31.6 µM (inconclusive). In the case of `CCc1c(C)c2ccc(OCC(=O)OC)cc2oc1=O`, the IC50 in “cells [4]” is 16.6 µM (active). As for `COc1ccc(-n2c(=O)c(-c3cn(C)c4ccccc34)nc3cnc(N4CCNCC4)nc32)cc1`, the AC50 on Cytochrome P450 3A4 was 20 µM (inconclusive); at Cytochrome P450 2C9 it was 39.8 µM (inconclusive); on Cytochrome P450 2D6 it was 20 µM (inconclusive). As for `CCC(C)(C)c1ccc(OCC(=O)Nc2ccncc2)cc1`, the IC50 in “cells [4]” is 8.95 µM (active). In the case of `CCNC(=O)COC(=O)c1ccc(-c2nc3ccccc3s2)s1`, in “cells [4]”, the IC50 was 5.44 µM (active). With `CCc1nc(N2CCN(C(=O)c3ccco3)CC2)c2c3c(sc2n1)CCCC3`, the EC50 in the assay “cells [1]” is > 350 µM (not active).

`Cc1ccc(C(=O)Nc2c3c(nn2C(C)(C)C)CS(=O)(=O)C3)cc1C`: the EC50 in “cells [1]” and in the assay “cells [2]” was > 350 µM (not active) throughout. Regarding `CC(=O)Nc1ccc(SC[C@H](Cc2ccccc2)N2CC[C@@H](O)CCC2=O)cc1`, the IC50 in assay [5] and in assay [6] was > 66 µM (inactive) each time. Regarding `O=C(NC(=S)Nc1ccccc1Br)c1ccco1`, the IC50 in [5] and in assay [6] was > 66 µM (inactive) each time.

Turning to `COc1ccccc1-c1nc(NCc2cccnc2)c2ccccc2n1`, the AC50 at Cytochrome P450 2C19 was 39.8 µM (inconclusive); at Cytochrome P450 2D6, 20 µM (inconclusive). For `[H]/N=C(/N)N/C(=N/[H])NCCc1ccccc1` [PHENFORMIN], the AC50 at Cytochrome P450 2D6 is 10 µM (inconclusive). Take `Cc1ccc(S(=O)(=O)N(C)C[C@@H]2Oc3ccc(NS(=O)(=O)c4ccc(Cl)cc4)cc3C(=O)N([C@@H](C)CO)C[C@H]2C)cc1`: the AC50 in assay [7] was 3.2 µM (active). `Cc1ccc(NC(=O)CSc2ncc3ccccn23)cc1`: the EC50 was > 350 µM (not active) in the assay “cells [1]” and 41.4 µM (active) in the assay “cells [2]”. Regarding `C=C1C(=O)O[C@H]2[C@H]1[C@H](OC(=O)CC(=O)O[C@@H]1C[C@@H](C)[C@@H]3C=CC(=O)[C@@]3(C)[C@H]3OC(=O)C(=C)[C@H]13)C[C@@H](C)[C@H]1C=CC(=O)[C@]12C`, the results for the AC50 in assay [8] and in assay [9] were 1.54 µM (active) and > 70 µM (inactive), respectively. Moreover, the IC50 on Large T antigen is 52 µM (active). On to `Oc1c(N=Nc2nn[nH]n2)ccc2ccccc12`, for which the IC50 was > 66 µM (inactive) in assay [5] and 38.9 µM (inactive) in assay [6]. As to `Cc1cccc(N2C(=O)/C(=C/Nc3ccc(O)cc3)c3ccccc3C2=O)n1`, at Large T antigen, the IC50 is 7.67 µM (active). Consider `Cc1cc(-c2nnnn2-c2cc(Cl)cc(Cl)c2)no1`, for which the EC50 in the assay “cells [1]” and in the assay “cells [2]” was > 350 µM (not active) each time. Turning to `COc1ccc(NC(=O)Nc2ccc3c(c2)CC(=O)N([C@H](C)CO)C[C@H](C)[C@@H](CN(C)CC2CCCCC2)O3)cc1`, the AC50 in assay [3] is 4.53 µM (active).

As to `COc1cccc2c1C(=O)c1c(O)c3c(c(O)c1C2=O)C[C@@](O)(C(C)O)C[C@@H]3OC1CC(N)C(O)C(C)O1` (some centres not stated), the values for the GI50 in the assay with P388/ADR, in the assay with SN12K1 and in the assay on P388 were 36.6 µM (inactive), 0.0891 µM (active) and 0.191 µM (active), respectively. On to `CCCc1cc(=O)[nH]c(SCC(=O)Nc2nonc2N)n1`, for which the IC50 in assay [5] and in assay [6] was > 66 µM (inactive) throughout. `CO/C=C1\OC(=O)C=C1OC`: the GI50 in the assay on P388/ADR, in the assay with SN12K1 and with P388 was > 100 µM (inactive) throughout. With `O=C(NCCO)c1ccc(Cl)cc1`, the AC50 is 2 µM (inconclusive) on Cytochrome P450 2C19, 5.01 µM (inconclusive) on Cytochrome P450 2C9 and 2 µM (inconclusive) at Cytochrome P450 2D6. Regarding `Nc1ncnc(O)c1/N=C/c1ccccc1`, the IC50 at Large T antigen is 28.6 µM (active). On to `CC(C)C1NC(=O)CC(c2ccccc2)N(N=O)C1c1ccccc1` (configuration not stated), for which the figures for the GI50 in the assay with P388/ADR, in the assay with SN12K1 and in the assay with P388 were 44.5 µM (inactive), > 89.9 µM (inactive) and 70.1 µM (inactive), respectively. Regarding `CN(C)CCNC(=O)c1cccc2[nH]c(-c3ccc(Cl)cc3)nc12`, the GI50 in the assay with P388/ADR is 3.2 µM (inactive); in the assay with SN12K1, 3.48 µM (inactive); in the assay with P388, 2.48 µM (inactive). Turning to `CC(=O)c1cccc(NS(=O)(=O)c2ccc(N/C=C\C(=O)c3ccc(F)cc3)cc2)c1`, the AC50 was 3.74 µM (active) with INS1 and 8.91 µM (inconclusive) on Cytochrome P450 2D6. For the compound `CC(C(=O)Nc1ccccc1-c1ccccc1)N1CCN(C(=O)c2ccccc2)CC1` (configuration not stated), the EC50 in “cells [1]” and in the assay “cells [2]” was > 350 µM (not active) each time. `CN(CC(=O)Nc1ccc(C#N)cc1)Cc1ccc(Cl)c(Cl)c1`: the IC50 in the assay “cells [4]” is 42.3 µM (active). As to `COc1ccc(NC2=NC(=S)N(c3ccc(C)cc3)C23CCCCC3)cc1`, the EC50 in [10] was 3.42 µM (active); in [11], 2.47 µM (active). `COc1ccc(-c2noc(-c3cc4ccccc4oc3=O)n2)cc1`: in the assay “cells [4]”, the IC50 was 5.25 µM (active). As to `N=c1c2c(-c3ccccc3)c(-c3ccccc3)n(Cc3ccco3)c2ncn1CCO`, the EC50 in [10] was 1.15 µM (active); in [11], 1.27 µM (active). On to `O=C(O)c1cccc(S(=O)(=O)Nc2ccc3oc(=O)sc3c2)c1`, for which the IC50 at Large T antigen is 46.3 µM (active). Turning to `O=C(O)CNS(=O)(=O)c1ccc(NC(=O)Nc2ccccc2)cc1`, the GI50 in the assay on P388/ADR, with SN12K1 and in the assay on P388 was > 100 µM (inactive) throughout. Turning to `O=C1C2=C(C3=NCCc4c[nH]c1c43)c1c(Br)cc(Br)cc1CCN2`, the GI50 with P388/ADR is 2.18 µM (inactive); with SN12K1, 3.65 µM (inactive); in the assay on P388 it was 2.13 µM (inactive). Turning to `COc1ccc(NC(=O)Nc2ccc3c(c2)[C@H]2C[C@H](CC(=O)N4CCc5ccccc5C4)O[C@H](CO)[C@H]2O3)cc1`, the AC50 in assay [3] was 7.78 µM (active).

Regarding `CC(=O)c1ccc([C@H]2C[C@@]34CN(C(=O)OC(C)(C)C)S(=O)(=O)[C@H]3C[C@H]2O4)cc1`, the AC50 in assay [12] was 36.6 µM (active). With `COc1cc(C2(c3ncc[nH]3)SSSCC2O)ccc1O` (configuration not stated), the values for the GI50 with P388/ADR, in the assay with SN12K1 and in the assay on P388 were 17.8 µM (inactive), 30.5 µM (inactive) and 18.7 µM (inactive), respectively. As to `COc1ccccc1NC(=O)c1cnc(SC)nc1`, the IC50 in “cells [4]” is 49.4 µM (active). Turning to `CCOC(=O)/C(=N\Nc1ccc(F)cc1)C(=O)c1ccc([N+](=O)[O-])cc1`, the EC50 in the assay “cells [1]” and in “cells [2]” was > 350 µM (not active) in each case. Regarding `Cc1cc(C)n(CC(=O)NNC(=O)COc2ccc(Br)cc2F)n1`, the IC50 in [5] and in assay [6] was > 66 µM (inactive) throughout. On to `N#Cc1ccc(CN2CCC3(CC2)CCN(C(=O)c2cc(C(F)(F)F)cc(C(F)(F)F)c2)CC3)cc1`, for which the concentration at half-maximal activity (AC50) on Cytochrome P450 2D6 was 39.8 µM (inconclusive).

Consider `CCn1c(SCC(=O)Nc2cc(C)on2)nc2sc3c(c2c1=O)CCCC3`, for which the figures for the EC50 in assay [10] and in [11] were 6.49 µM (active) and 13.2 µM (active), respectively. Further, in the assay on INS1, the AC50 was 8.67 µM (active).

Source of the values: ChEMBL document CHEMBL1201862, “PubChem BioAssay data set” (2004).
